Structures can show the parent of a compound that is named as a salt.

For 18 compounds, IC50 and GI50 results are on record in patent US20230027026A1, “FUSED PYRIMIDINE COMPOUNDS, COMPOSITIONS AND MEDICINAL APPLICATIONS THEREOF” (JUBILANT BIOSYS LIMITED, priority 2019, published 2023).

What all share (assay type): cell-based
The subject of one assay is A431 cells. Description: Cellular proliferation (Alamar Blue) assay, A431. Particulars: Homo sapiens, A-431; A431 cells, 72 hr, Alamar Blue; read-out: A431 IC50. Here is the method:
(§1) Example 3: Cellular Proliferation (Alamar Blue) Assays
(§2) • 1. EGFR(D770_N771insSVD) expressing Ba/F3 stable cell line • 2. EGFR (A767_dupASV) expressing Ba/F3 stable cell line • 3. A431 cells • 4. BTER2 (A775_G776insYVMA) expressing Ba/F3 stable cell line • 5. BTER2 (WT) expressing Ba/F3 stable cell line • 6. BT-474 cells
(§3) • 1. Seed cells at 5000 for A431 and 15,000 cells for Ba/F3 in 100 μL/well in complete media (for A431: DMEM with 10% FBS and for Ba/F3 cells: RPMI with 10% FBS) in 96-well tissue culture plate. Leave outer wells without cells for background measurements. Incubate at 37 degree Celsius in 5% CO2 humidified incubator for 16-18 hours. • 2. Add 0.025 ml of 5× concentration compound dilution or DMSO control. Final compound concentration range is 10-0.0005 μM prepared in 3-fold serial dilutions. Incubate for 72 hr at 37 degree Celsius in […] humidified incubator. • 3. Add 0.0125 mL Alamar Blue™ reagent to each well with multi-channel pipette and tap gently on each side of the plate to mix. Incubate for 3 hours at 37 degree Celsius in […] humidified incubator. • 4. Read plates on fluorescence reader (Tecan Spark Control, Device: Spark, Serial #: 1801006040) at 540 nm excitation, 590 nm emission wavelength. • 5. Data analysis was performed using XLfit 5.5.0.5.

For assay [1], the target named is EGFR (A767_dupASV) expressing Ba/F3 stable cell line (Homo sapiens, UniProt P00533, DUP767-769, cells depend on it). Description: Cellular proliferation (Alamar Blue) assay, EGFR A767_dupASV Ba/F3. Conditions: EGFR A767_dupASV Ba/F3, 72 hr, read-out: A767 IC50. Here is the method: as §1, §2, §3
Assay [2] has as its target EGFR(D770_N771insSVD) expressing Ba/F3 stable cell line (Homo sapiens, UniProt P00533, DUP768-770, cells depend on it). Description: Cellular proliferation (Alamar Blue) assay, EGFR D770_N771insSVD Ba/F3. Particulars: EGFR D770_N771insSVD Ba/F3, 72 hr, read-out: D770 IC50. Here is the method:
as §1, §2, §3

EGFR (A767_dupASV) expressing Ba/F3 stable cell line, sequence (P00533 with tags, fused parts or gaps DUP767-769): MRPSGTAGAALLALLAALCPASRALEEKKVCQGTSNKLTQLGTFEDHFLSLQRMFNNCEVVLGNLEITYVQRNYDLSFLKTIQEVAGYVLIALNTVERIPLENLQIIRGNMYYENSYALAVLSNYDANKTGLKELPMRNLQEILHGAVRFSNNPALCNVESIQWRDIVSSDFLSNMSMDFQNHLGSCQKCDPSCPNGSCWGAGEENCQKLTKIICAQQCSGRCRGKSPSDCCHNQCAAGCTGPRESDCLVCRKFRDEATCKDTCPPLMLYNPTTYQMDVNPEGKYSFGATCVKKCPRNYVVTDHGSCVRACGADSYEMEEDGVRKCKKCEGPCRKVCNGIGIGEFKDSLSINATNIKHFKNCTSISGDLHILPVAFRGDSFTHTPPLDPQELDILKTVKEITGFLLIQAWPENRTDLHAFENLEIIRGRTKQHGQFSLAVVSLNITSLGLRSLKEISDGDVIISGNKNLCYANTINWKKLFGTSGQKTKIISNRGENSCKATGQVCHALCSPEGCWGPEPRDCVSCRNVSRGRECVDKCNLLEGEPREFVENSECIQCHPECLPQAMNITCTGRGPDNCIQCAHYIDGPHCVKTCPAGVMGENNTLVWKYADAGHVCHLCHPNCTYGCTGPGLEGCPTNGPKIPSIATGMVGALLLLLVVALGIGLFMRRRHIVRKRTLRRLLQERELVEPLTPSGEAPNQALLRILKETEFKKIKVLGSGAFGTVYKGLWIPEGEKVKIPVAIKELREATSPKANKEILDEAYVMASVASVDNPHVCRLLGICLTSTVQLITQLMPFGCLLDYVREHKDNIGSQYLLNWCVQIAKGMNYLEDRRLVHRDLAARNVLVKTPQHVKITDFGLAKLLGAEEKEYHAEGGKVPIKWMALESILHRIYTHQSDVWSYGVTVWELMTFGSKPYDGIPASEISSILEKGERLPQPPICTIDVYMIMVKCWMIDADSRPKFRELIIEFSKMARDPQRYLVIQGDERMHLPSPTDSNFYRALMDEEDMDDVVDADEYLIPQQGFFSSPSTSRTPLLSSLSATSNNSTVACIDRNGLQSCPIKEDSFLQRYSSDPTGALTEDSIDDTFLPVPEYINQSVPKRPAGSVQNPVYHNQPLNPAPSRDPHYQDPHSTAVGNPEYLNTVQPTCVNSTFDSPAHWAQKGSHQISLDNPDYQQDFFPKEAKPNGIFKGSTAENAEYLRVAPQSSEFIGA
EGFR(D770_N771insSVD) expressing Ba/F3 stable cell line, sequence (P00533 with tags, fused parts or gaps DUP768-770): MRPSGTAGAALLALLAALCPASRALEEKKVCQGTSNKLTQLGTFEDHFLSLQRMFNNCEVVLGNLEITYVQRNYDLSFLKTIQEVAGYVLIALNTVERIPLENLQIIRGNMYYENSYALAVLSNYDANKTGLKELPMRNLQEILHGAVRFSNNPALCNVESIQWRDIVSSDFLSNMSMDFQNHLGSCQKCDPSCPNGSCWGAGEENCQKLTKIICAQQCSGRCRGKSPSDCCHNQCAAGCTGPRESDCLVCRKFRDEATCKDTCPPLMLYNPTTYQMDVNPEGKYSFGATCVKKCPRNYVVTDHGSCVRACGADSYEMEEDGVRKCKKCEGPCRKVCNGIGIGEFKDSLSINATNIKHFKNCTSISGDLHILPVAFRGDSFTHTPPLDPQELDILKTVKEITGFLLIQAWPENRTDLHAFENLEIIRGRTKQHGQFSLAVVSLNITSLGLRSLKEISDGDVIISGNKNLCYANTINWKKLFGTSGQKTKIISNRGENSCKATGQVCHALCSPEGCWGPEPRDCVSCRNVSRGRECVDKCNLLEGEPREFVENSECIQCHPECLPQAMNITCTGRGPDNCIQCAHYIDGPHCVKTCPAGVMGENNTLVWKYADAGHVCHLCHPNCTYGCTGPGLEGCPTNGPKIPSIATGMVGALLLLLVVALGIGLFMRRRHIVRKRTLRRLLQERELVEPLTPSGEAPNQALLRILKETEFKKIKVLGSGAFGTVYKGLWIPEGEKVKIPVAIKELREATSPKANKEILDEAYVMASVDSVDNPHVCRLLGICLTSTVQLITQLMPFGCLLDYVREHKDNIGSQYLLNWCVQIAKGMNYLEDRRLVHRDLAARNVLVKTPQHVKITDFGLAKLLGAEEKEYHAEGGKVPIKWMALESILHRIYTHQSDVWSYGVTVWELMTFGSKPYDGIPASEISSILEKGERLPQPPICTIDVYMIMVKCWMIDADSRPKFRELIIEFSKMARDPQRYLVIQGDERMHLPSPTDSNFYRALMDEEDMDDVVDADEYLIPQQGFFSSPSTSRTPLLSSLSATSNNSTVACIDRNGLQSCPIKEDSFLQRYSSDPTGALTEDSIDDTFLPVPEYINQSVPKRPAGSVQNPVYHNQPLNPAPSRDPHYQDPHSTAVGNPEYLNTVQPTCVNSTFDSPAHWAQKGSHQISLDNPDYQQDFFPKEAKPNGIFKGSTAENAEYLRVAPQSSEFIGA

With `C/C=C/C(=O)Nc1cccc(N2C(=O)N(Cc3ccccc3)Cc3cnc(Nc4cn(C)nc4F)nc32)c1` [Compound 87, (E)-N-(3-(3-benzyl-7-((3-fluoro-1-methyl-1H-pyrazol-4-yl)amino)-2-oxo-3,4-dihydropyrimido[4,5-d]pyrimidin-1(2H)-yl)phenyl)but-2-enamide], the half-maximal inhibitory concentration (IC50) in the assay on A431 cells is over 10000 nM. The GI50 in assay [1] was 2240 nM; in assay [2], 1980 nM.
The like results for `CN(C)C/C=C/C(=O)Nc1cccc(N2C(=O)N(Cc3ccccc3)Cc3cnc(Nc4cnn5cccnc45)nc32)c1` [Compound 90, (E)-N-(3-(3-benzyl-2-oxo-7-(pyrazolo[1,5-a]pyrimidin-3-ylamino)-3,4-dihydropyrimido[4,5-d]pyrimidin-1(2H)-yl)phenyl)-4-(dimethylamino)but-2-enamide] were, in that order, at least 10000 nM, 1150 nM and 1850 nM.
On the same counts, the results for `COCCn1cc(Nc2ncc3c(n2)N(c2cccc(NC(=O)/C=C/CN(C)C)c2)C(=O)N(Cc2ccccc2)C3)c(Cl)n1` [Compound 92, (E)-N-(3-(3-benzyl-7-((3-chloro-1-(2-methoxyethyl)-1H-pyrazol-4-yl)amino)-2-oxo-3,4-dihydropyrimido[4,5-d]pyrimidin-1(2H)-yl)phenyl)-4-(dimethylamino)but-2-enamide] are at least 10000 nM, 385 nM and 228 nM.
On the same counts, the results for `CN(C)C/C=C/C(=O)Nc1cccc(N2C(=O)N(Cc3ccccc3)Cc3cnc(Nc4cn(CCF)nc4Cl)nc32)c1` [Compound 93, (E)-N-(3-(3-benzyl-7-((3-chloro-1-(2-fluoroethyl)-1H-pyrazol-4-yl)amino)-2-oxo-3,4-dihydropyrimido[4,5-d]pyrimidin-1(2H)-yl)phenyl)-4-(dimethylamino)but-2-enamide] are at least 10000 nM, 108 nM and 91 nM.
`CN(C)C/C=C/C(=O)Nc1cccc(N2C(=O)N(Cc3ccccc3)Cc3cnc(Nc4cn(C)nc4C(F)F)nc32)c1` [Compound 94, (E)-N-(3-(3-benzyl-7-((3-(difluoromethyl)-1-methyl-1H-pyrazol-4-yl)amino)-2-oxo-3,4-dihydropyrimido[4,5-d]pyrimidin-1(2H)-yl)phenyl)-4-(dimethylamino)but-2-enamide]: in the assay on A431 cells, the IC50 is at least 10000 nM. In addition, the GI50 is 39 nM in assay [1] and 43 nM in assay [2].
On the same counts, the results for `CN(C)C/C=C/C(=O)Nc1cccc(N2C(=O)N(Cc3ccccc3)Cc3cnc(Nc4cn(C)nc4C(F)(F)F)nc32)c1` [Compound 95, (E)-N-(3-(3-benzyl-7-((1-methyl-3-(trifluoromethyl)-1H-pyrazol-4-yl)amino)-2-oxo-3,4-dihydropyrimido[4,5-d]pyrimidin-1(2H)-yl)phenyl)-4-(dimethylamino)but-2-enamide] are 6500 nM, 106 nM and 97 nM.
The like results for `CN(C)C/C=C/C(=O)Nc1cccc(N2C(=O)N(Cc3ccccc3)Cc3cnc(Nc4ccncc4)nc32)c1` [Compound 96, (E)-N-(3-(3-benzyl-2-oxo-7-(pyridin-4-ylamino)-3,4-dihydropyrimido[4,5-d]pyrimidin-1(2H)-yl)phenyl)-4-(dimethylamino)but-2-enamide] were, in that order, at least 10000 nM, over 9350 nM and 4070 nM.
On the same counts, the results for `CN(C)C/C=C/C(=O)Nc1cccc(N2C(=O)N(Cc3ccccc3)Cc3cnc(Nc4cnn5c4OCCC5)nc32)c1` [Compound 97, (E)-N-(3-(3-benzyl-7-((6,7-dihydro-5H-pyrazolo[5,1-b][1,3]oxazin-3-yl)amino)-2-oxo-3,4-dihydropyrimido[4,5-d]pyrimidin-1(2H)-yl)phenyl)-4-(dimethylamino)but-2-enamide] are at least 10000 nM, 2630 nM and 2540 nM.
Regarding `CN(C)C/C=C/C(=O)Nc1cccc(N2C(=O)N(Cc3ccccc3)Cc3cnc(Nc4cccc5c4CCN5C4CCN(C)CC4)nc32)c1` [Compound 98, (E)-N-(3-(3-benzyl-7-((1-(1-methylpiperidin-4-yl)indolin-4-yl)amino)-2-oxo-3,4-dihydropyrimido[4,5-d]pyrimidin-1(2H)-yl)phenyl)-4-(dimethylamino)but-2-enamide], the IC50 in the assay with A431 cells is at least 10000 nM. The GI50 in assay [1] was determined as 322 nM; in assay [2] it was 138 nM.
On the same counts, the results for `CN(C)C/C=C/C(=O)Nc1cccc(N2C(=O)N(Cc3ccccc3)Cc3cnc(Nc4ccc5c(ccn5C)c4)nc32)c1` [Compound 99, (E)-N-(3-(3-benzyl-7-((1-methyl-1H-indol-5-yl)amino)-2-oxo-3,4-dihydropyrimido[4,5-d]pyrimidin-1(2H)-yl)phenyl)-4-(dimethylamino)but-2-enamide] are at least 10000 nM, 115 nM and 145 nM.
The like results for `Cc1cn2cc(Nc3ncc4c(n3)N(c3cccc(NC(=O)/C=C/CN(C)C)c3)C(=O)N(Cc3ccccc3)C4)ccc2n1` [Compound 100, (E)-N-(3-(3-benzyl-7-((2-methylimidazo[1,2-a]pyridin-6-yl)amino)-2-oxo-3,4-dihydropyrimido[4,5-d]pyrimidin-1(2H)-yl)phenyl)-4-(dimethylamino)but-2-enamide] were, in that order, at least 10000 nM, 2970 nM and 4810 nM.
`CN(C)C/C=C/C(=O)Nc1cccc(N2C(=O)N(Cc3ccccc3)Cc3cnc(Nc4cn(CC(F)F)nc4Cl)nc32)c1` [Compound 101, (E)-N-(3-(3-benzyl-7-((3-chloro-1-(2,2-difluoroethyl)-1H-pyrazol-4-yl)amino)-2-oxo-3,4-dihydropyrimido[4,5-d]pyrimidin-1(2H)-yl)phenyl)-4-(dimethylamino)but-2-enamide]: in the assay on A431 cells, the IC50 is at least 10000 nM. For the same compound, the GI50 worked out at 100 nM in assay [1] and 176 nM in assay [2].
The like results for `CN(C)C/C=C/C(=O)Nc1cccc(N2C(=O)N(Cc3ccccc3)Cc3cnc(Nc4ccc5c(c4)ncn5C)nc32)c1` [Compound 102, (E)-N-(3-(3-benzyl-7-((1-methyl-1H-benzo[d]imidazol-5-yl)amino)-2-oxo-3,4-dihydropyrimido[4,5-d]pyrimidin-1(2H)-yl)phenyl)-4-(dimethylamino)but-2-enamide] were, in that order, at least 10000 nM, 694 nM and 929 nM.
On the same counts, the results for `COc1ncccc1Nc1ncc2c(n1)N(c1cccc(NC(=O)/C=C/CN(C)C)c1)C(=O)N(Cc1ccccc1)C2` [Compound 103, (E)-N-(3-(3-benzyl-7-((2-methoxypyridin-3-yl)amino)-2-oxo-3,4-dihydropyrimido[4,5-d]pyrimidin-1(2H)-yl)phenyl)-4-(dimethylamino)but-2-enamide trifluoroacetate salt] are at least 10000 nM, 269 nM and 224 nM.
On the same counts, the results for `CN(C)C/C=C/C(=O)N(C)c1cccc(N2C(=O)N(c3ccccc3)Cc3cnc(Nc4cn(C)nc4Cl)nc32)c1` [Compound 104, (E)-N-(3-(7-((3-chloro-1-methyl-1H-pyrazol-4-yl)amino)-2-oxo-3-phenyl-3,4-dihydropyrimido[4,5-d]pyrimidin-1(2H)-yl)phenyl)-4-(dimethylamino)-N-methylbut-2-enamide] are at least 10000 nM, 255 nM and 885 nM.
`C=CC(=O)Nc1cccc(N2C(=O)N(c3ccccc3)Cc3cnc(Nc4cn(C5CCN(C)CC5)nc4Cl)nc32)c1` [Compound 105, N-(3-(7-((3-chloro-1-(1-methylpiperidin-4-yl)-1H-pyrazol-4-yl)amino)-2-oxo-3-phenyl-3,4-dihydropyrimido[4,5-d]pyrimidin-1(2H)-yl)phenyl)acrylamide]: the IC50 in the assay on A431 cells stood at 3600 nM. Further, the values for the GI50 in assay [1] and in assay [2] were 12 nM and 14 nM, respectively.
Take `CN1CCN(C/C=C/C(=O)Nc2cccc(N3C(=O)N(c4ccccc4)Cc4cnc(Nc5cn(C)nc5Cl)nc43)c2)CC1` [Compound 126, (E)-N-(3-(7-((3-chloro-1-methyl-1H-pyrazol-4-yl)amino)-2-oxo-3-phenyl-3,4-dihydropyrimido[4,5-d]pyrimidin-1(2H)-yl)phenyl)-4-(4-methylpiperazin-1-yl)but-2-enamide]: the IC50 in the assay with A431 cells is at least 10000 nM. Also, the GI50 in assay [1] was 1090 nM; in assay [2], 2290 nM.
On the same counts, the results for `C=C(OC)C(=O)Nc1cccc(N2C(=O)N(c3ccccc3)Cc3cnc(Nc4cn(C)nc4Cl)nc32)c1` [Compound 127, N-(3-(7-((3-chloro-1-methyl-1H-pyrazol-4-yl)amino)-2-oxo-3-phenyl-3,4-dihydropyrimido[4,5-d]pyrimidin-1(2H)-yl)phenyl)-2-methoxyacrylamide] are 8170 nM, at least 10000 nM and at least 10000 nM.
